In patent US20150038435A1, “N-TERMINALLY MODIFIED OLIGOPEPTIDES AND USES THEREOF” (Novo Nordisk A/S, priority 2012, published 2015):
*: point of attachment. Lauroyl = CCCCCCCCCCCC(=O)*

Legend:
Chymotrypsin = experiment: Inhibition of enzymatic degradation of a model GLP-1 (FRET substrate) by chymotrypsin; type: biochemical
From the text: (§1) The use of Förster resonance energy transfer (FRET), also known as fluorescence resonance energy transfer, substrates to monitor activity of proteolytic enzymes is known in the field (for example Anjuere, F. et al. (1993). Biochem J 291 (Pt 3), 869-73).
(§2) Model GLP-1 analogue was designed as FRET substrate by incorporation of 7-Methoxycoumarin-4-acetic acid (MCA) group as the donor chromophore and dinitrophenol group (DNP) as the acceptor chromophore.
(§3) An assay following the increase in fluorescence as a function of time was established in 96 well format using Varioskan Flash Multimode Meter (Thermo Scientific). Each well contained 70 μl of Dulbecco's phosphate buffer saline (Invitrogen catalogue #14190-094), 10 μl of 100 μM GLP-1 FRET substrate, 10 μl of N-terminally acylated peptide or oligopeptide of the invention in varying concentration and 10 μl of a stock solution of an enzyme (chymotrypsin, trypsin, elastase, etc.). The incubations were performed at 37° C. Fluorescence (320 nm excitation wavelength and 405 nm emission wavelength) was measured immediately after addition of the enzyme to the 96 well plate and also every minute for at least the next 30 minutes. The concentration of the enzyme was optimized to allow determination of slopes for the time course of initial fluorescence increase with and without the N-terminally acylated peptides or oligopeptides of the invention. The slopes were determined by linear regression of the linear part of the fluorescence trace (for example, the first 10 min of the reaction). Each assay was performed in duplicate and average of the two traces was included in the calculations. The relative effect of N-terminally acylated peptide or oligopeptides of the invention on enzymatic degradation of GLP-1 FRET substrate was obtained by comparison of the slopes achieved by the same concentration of the N-terminally acylated peptide or oligopeptides. […] This was done by plotting the slopes achieved with different concentrations of the N-terminally acylated peptide or oligopeptides of the invention as a function of their concentrations and fitting the experimental results using, for example, sigmoidal logistic regression (2 parameters, Sigma Plot v 11). Inhibition constants for the interaction between the N-terminally acylated peptide or oligopeptides of the invention and proteolytic enzymes were also obtained by performing the assay described above with varying concentrations of the inhibitor and substrate and analyzing the results, for example, by double reciprocal transformation as known to the person skilled in the art and described for example in Hubalek, F. et al., J. Med. Chem. 47, 1760-1766 (2004).
(§4) The EC50 was determined for the following compounds. EC50±standard error is reported if the results of at least 3 independent measurements were available.

[1] = Hydrophobicity: retention time during reverse phase HPLC; type: physicochemical; conditions: Acquity CSH C18; pH 7.2 buffer/CH3CN gradient; 40° C.
From the text: The retention time (RT) during reverse phase HPLC was taken as a measure of hydrophobicity of an N-terminally modified peptide or oligopeptide of the invention, where the connection is: The longer the RT, the more hydrophobic N-terminally modified peptide or oligopeptide. The following running conditions were applied during HPLC analysis:
Buffer B: 70% (v/v) aq. CH3CN

Trypsin = experiment: Inhibition of enzymatic degradation of a model GLP-1 (FRET substrate) by trypsin; type: biochemical
From the text: as §1, §2, §3, §4

[2] = compound 0.1 mM, buffer containing 8% DMSO

| Substance | Slope of the initial increase in fluorescence obtained during incubation with 0.001 mg/ml Chymotrypsin (Chymotrypsin; [2]) | RT (retention time during reverse phase HPLC as a measure of hydrophobicity) [1] [min] | Slope of the initial increase in fluorescence obtained during incubation with 0.001 mg/ml Trypsin (Trypsin; [2]) | Slope of the initial increase in fluorescence obtained during incubation with 0.001 mg/ml Chymotrypsin (Chymotrypsin; compound 1 mM) | Slope of the initial increase in fluorescence obtained during incubation with 0.001 mg/ml Trypsin (Trypsin; compound 1 mM) | EC50 (Chymotrypsin; read-out: EC50 Chymotrypsin (0.001 mg/ml), 0.001 mg/ml chymotrypsin, 37° C., ± standard error if at least 3 measurements) [µM] | EC50 (Trypsin; read-out: EC50 Trypsin (0.001 mg/ml), 0.001 mg/ml trypsin, 37° C.) [µM] |
| --- | --- | --- | --- | --- | --- | --- | --- |
| N-dodecanoyl-Ala-Ala-Gly-Tyr-OH (Lauroyl-AAGY-OH; SMILES CCCCCCCCCCCC(=O)N[C@@H](C)C(=O)N[C@@H](C)C(=O)NCC(=O)N[C@@H](Cc1ccc(O)cc1)C(=O)O) [Example 63] | 1.89 | 5.46 | 1.90 |  |  |  |  |
| N-dodecanoyl-Ala-Ala-His-Tyr-OH (Lauroyl-AAHY-OH; SMILES CCCCCCCCCCCC(=O)N[C@@H](C)C(=O)N[C@@H](C)C(=O)N[C@@H](Cc1c[nH]cn1)C(=O)N[C@@H](Cc1ccc(O)cc1)C(=O)O) [Example 64] | 1.23 | 5.33 | 2.23 |  |  |  |  |
| N-dodecanoyl-Ala-Ala-Ile-Tyr-OH (Lauroyl-AAIY-OH; SMILES CCCCCCCCCCCC(=O)N[C@@H](C)C(=O)N[C@@H](C)C(=O)N[C@H](C(=O)N[C@@H](Cc1ccc(O)cc1)C(=O)O)[C@@H](C)CC) [Example 65] | 2.04 | 3.12 | 1.60 |  |  |  |  |
| N-dodecanoyl-Ala-Ala-Leu-Tyr-OH (Lauroyl-AALY-OH; SMILES CCCCCCCCCCCC(=O)N[C@@H](C)C(=O)N[C@@H](C)C(=O)N[C@@H](CC(C)C)C(=O)N[C@@H](Cc1ccc(O)cc1)C(=O)O) [Example 66] | 0.18 | 7.18 | 1.98 |  |  |  |  |
| N-dodecanoyl-Ala-Ala-Lys-Tyr-OH (Lauroyl-AAKY-OH; SMILES CCCCCCCCCCCC(=O)N[C@@H](C)C(=O)N[C@@H](C)C(=O)N[C@@H](CCCCN)C(=O)N[C@@H](Cc1ccc(O)cc1)C(=O)O) [Example 67] | 0.94 | 4.7 | 1.89 |  |  |  |  |
| N-dodecanoyl-Ala-Ala-Met-Tyr-OH (Lauroyl-AAMY-OH; SMILES CCCCCCCCCCCC(=O)N[C@@H](C)C(=O)N[C@@H](C)C(=O)N[C@@H](CCSC)C(=O)N[C@@H](Cc1ccc(O)cc1)C(=O)O) [Example 68] | 0.60 | 6.68 | 1.73 |  |  |  |  |
| N-dodecanoyl-Ala-Ala-Pro-DPhe-OH [Example 4] |  | 6.89 |  | 0.08 | 0.83 |  |  |
| N-dodecanoyl-Ala-Ala-Pro-Leu-OH (Lauroyl-AAPL-OH; SMILES CCCCCCCCCCCC(=O)N[C@@H](C)C(=O)N[C@@H](C)C(=O)N1CCC[C@H]1C(=O)N[C@@H](CC(C)C)C(=O)O) [Example 11] |  | 1.22 |  | 0.77 | 3.06 |  |  |
| N-dodecanoyl-Ala-Ala-Pro-Trp-OH (Lauroyl-AAPW-OH; SMILES CCCCCCCCCCCC(=O)N[C@@H](C)C(=O)N[C@@H](C)C(=O)N1CCC[C@H]1C(=O)N[C@@H](Cc1c[nH]c2ccccc12)C(=O)O) [Example 26] |  | 7.03 |  |  |  | 29 ± 2 | 413 |
| N-dodecanoyl-Ala-Ala-Pro-Tyr-OH [Example 69] (Lauroyl-AAPY-OH; SMILES CCCCCCCCCCCC(=O)N[C@@H](C)C(=O)N[C@@H](C)C(=O)N1CCC[C@H]1C(=O)N[C@@H](Cc1ccc(O)cc1)C(=O)O) | 0.43 | 5.79 | 1.83 |  |  |  |  |
| N-dodecanoyl-Ala-Ala-Ser-Tyr-OH (Lauroyl-AASY-OH; SMILES CCCCCCCCCCCC(=O)N[C@@H](C)C(=O)N[C@@H](C)C(=O)N[C@@H](CO)C(=O)N[C@@H](Cc1ccc(O)cc1)C(=O)O) [Example 70] | 1.50 | 5.43 | 1.45 |  |  |  |  |
| N-dodecanoyl-Ala-Ala-Thr-Tyr-OH (Lauroyl-AATY-OH; SMILES CCCCCCCCCCCC(=O)N[C@@H](C)C(=O)N[C@@H](C)C(=O)N[C@H](C(=O)N[C@@H](Cc1ccc(O)cc1)C(=O)O)[C@@H](C)O) [Example 71] | 0.91 | 5.61 | 1.76 |  |  |  |  |
| N-dodecanoyl-Ala-Ala-Val-Tyr-OH (Lauroyl-AAVY-OH; SMILES CCCCCCCCCCCC(=O)N[C@@H](C)C(=O)N[C@@H](C)C(=O)N[C@H](C(=O)N[C@@H](Cc1ccc(O)cc1)C(=O)O)C(C)C) [Example 72] | 1.18 | 6.44 | 1.52 |  |  |  |  |
| N-dodecanoyl-Ala-Arg-Pro-Tyr-OH (Lauroyl-ARPY-OH; SMILES CCCCCCCCCCCC(=O)N[C@@H](C)C(=O)N[C@@H](CCCNC(=N)N)C(=O)N1CCC[C@H]1C(=O)N[C@@H](Cc1ccc(O)cc1)C(=O)O) [Example 73] | 0.08 | 5.34 | 1.67 |  |  |  |  |
| N-dodecanoyl-Ala-Asn-Pro-Tyr-OH (Lauroyl-ANPY-OH; SMILES CCCCCCCCCCCC(=O)N[C@@H](C)C(=O)N[C@@H](CC(N)=O)C(=O)N1CCC[C@H]1C(=O)N[C@@H](Cc1ccc(O)cc1)C(=O)O) [Example 74] | 1.66 | 5.27 | 2.27 |  |  |  |  |
| N-dodecanoyl-Ala-Asp-Pro-Tyr-OH (Lauroyl-ADPY-OH; SMILES CCCCCCCCCCCC(=O)N[C@@H](C)C(=O)N[C@@H](CC(=O)O)C(=O)N1CCC[C@H]1C(=O)N[C@@H](Cc1ccc(O)cc1)C(=O)O) [Example 75] | 1.77 | 4.2 | 1.81 |  |  |  |  |
| N-dodecanoyl-Ala-Gln-Pro-Tyr-OH (Lauroyl-AQPY-OH; SMILES CCCCCCCCCCCC(=O)N[C@@H](C)C(=O)N[C@@H](CCC(N)=O)C(=O)N1CCC[C@H]1C(=O)N[C@@H](Cc1ccc(O)cc1)C(=O)O) [Example 76] | 0.85 | 5.26 | 2.22 |  |  |  |  |
| N-dodecanoyl-Ala-Glu-Pro-Tyr-OH (Lauroyl-AEPY-OH; SMILES CCCCCCCCCCCC(=O)N[C@@H](C)C(=O)N[C@@H](CCC(=O)O)C(=O)N1CCC[C@H]1C(=O)N[C@@H](Cc1ccc(O)cc1)C(=O)O) [Example 77] | 1.56 | 4.17 | 1.55 |  |  |  |  |
